ChEMBL document CHEMBL1135615

Assays:
[1] = biological target: 4-aminobutyrate aminotransferase, mitochondrial (Homo sapiens) (UniProt P80404); experiment: Time dependent inactivation of Gamma-amino-N-butyrate transaminase; conditions: Cavia porcellus
[2] = Ratio of kinact to that of KI.

Chain of 4-aminobutyrate aminotransferase, mitochondrial (Homo sapiens) (P80404 whole entry): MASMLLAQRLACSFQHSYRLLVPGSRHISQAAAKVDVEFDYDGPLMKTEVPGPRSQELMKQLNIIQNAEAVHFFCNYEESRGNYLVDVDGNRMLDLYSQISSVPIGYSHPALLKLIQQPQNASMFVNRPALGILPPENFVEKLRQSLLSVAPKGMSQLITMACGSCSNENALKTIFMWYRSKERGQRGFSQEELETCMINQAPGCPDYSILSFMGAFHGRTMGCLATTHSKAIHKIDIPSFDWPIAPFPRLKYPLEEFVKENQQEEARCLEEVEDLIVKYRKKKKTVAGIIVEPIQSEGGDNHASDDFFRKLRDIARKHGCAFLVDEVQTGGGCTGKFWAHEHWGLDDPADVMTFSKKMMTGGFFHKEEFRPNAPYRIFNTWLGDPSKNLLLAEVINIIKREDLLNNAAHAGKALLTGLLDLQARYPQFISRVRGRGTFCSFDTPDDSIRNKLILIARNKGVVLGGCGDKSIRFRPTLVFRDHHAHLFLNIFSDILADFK

SMILES	K inact [1] [min⁻¹]	Ratio [2]
N[C@@H]1C=CCC[C@@H]1C(=O)O	0.03	0.0024
N[C@@H]1C=CC[C@H](C(=O)O)C1	0.01	0.0042
